One experiment deals with P-4E-BP1 (T37/46). The experiment is described as follows: Cell based AlphaLISA assay, inhibition of P-4E-BP1 (T37/46) (mTORC1 substrate phosphorylation) in MDA-MB-468 cells. Particulars: Homo sapiens, MDA-MB-468, 4 h, two to four hours at 37° C. In short, it runs like this: (§1)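 Cells are exposed to inhibitor, then the assay buffer is taken off and kit lysis buffer added. Lysates undergo AlphaLISA SureFire Ultra detection in duplicate.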

The next experiment deals with P-Akt (S473). The experiment is described as follows: Cell based AlphaLISA assay, inhibition of P-Akt (S473) (mTORC2 substrate phosphorylation) in MDA-MB-468 cells. Conditions: Homo sapiens, MDA-MB-468, 4 h, two to four hours at 37° C. In short, it runs like this: as §1
For another experiment, the system named is P-P70S6K (T389). The experiment is described as follows: Cell based AlphaLISA assay, inhibition of P-P70S6K (T389) (mTORC1 substrate phosphorylation) in MDA-MB-468 cells. Particulars: Homo sapiens, 4 h, two to four hours at 37° C. A digest of the protocol:
as §1

Like-named read-outs stand apart in the source and are kept apart here.

Turning to `CO[C@H]1C[C@@H]2CC[C@@H](C)[C@@](O)(O2)C(=O)C(=O)N2CCCC[C@H]2C(=O)O[C@H]([C@H](C)C[C@@H]2CC[C@@H](OCCCCc3cn(CCOCCOCCOCCC(=O)NCCOCCOCCOCCC(=O)NCCCCn4nc(-c5cc6cc(O)ccc6[nH]5)c5c(N)ncnc54)nn3)[C@H](OC)C2)CC(=O)[C@H](C)/C=C(\C)[C@@H](O)[C@@H](OC)C(=O)[C@H](C)C[C@H](C)/C=C/C=C/C=C/1C` [Example 199], the IC50 is under 3.16 nM in the experiment on P-4E-BP1 (T37/46) (AlphaLISA, read-out: pIC50 for Inhibition of mTORC1 and mTORC2 Substrate Phosphorylation, P-4E-BP1-(T37/46) (converted)); 31.6 to 1000 nM with P-Akt (S473) (AlphaLISA, read-out: pIC50 for Inhibition of mTORC1 and mTORC2 Substrate Phosphorylation, p-AKT 1/2/3 -(S473) (converted)); under 1 nM in the experiment on P-P70S6K (T389) (AlphaLISA, read-out: pIC50 for Inhibition of mTORC1 and mTORC2 Substrate Phosphorylation, P-P70S6K-(T389) (converted)).
As to `CC(C)n1nc(-c2ccc3oc(N)nc3c2)c2c(N)ncnc21` [MLN-128, reference compound], the IC50 was 16 nM in the experiment on P-4E-BP1 (T37/46) (AlphaLisa SureFire Ultra, read-out: IC50 for Inhibition of mTORC1 and mTORC2 Substrate Phosphorylation, p-4E-BP1-(T37/46)); 3.7 nM with P-Akt (S473) (AlphaLisa SureFire Ultra, read-out: IC50 for Inhibition of mTORC1 and mTORC2 Substrate Phosphorylation, p-AKT1/2/3-(S473)); 1.4 nM with P-P70S6K (T389) (AlphaLisa SureFire Ultra, read-out: IC50 for Inhibition of mTORC1 and mTORC2 Substrate Phosphorylation, p-P70S6K-(T389)).
